Source: patent publication US20250171457A1, “NITROGEN-CONTAINING HETEROCYCLIC COMPOUND HAVING NRF2 ACTIVATION EFFECT” (CHUGAI SEIYAKU KABUSHIKI KAISHA, priority 2022, published 2025)

Test system: Nrf2 transcriptional activity (pARE-Luc reporter) in HepG2 cells
Test: In vitro Nrf2 transcriptional activity measurement by ARE-dependent reporter assay in HepG2 cell
Format: cell-based, human
Details: Homo sapiens; HepG2 cells transfected with pARE-Luc, 4 hours at 37° C.; luciferase activity of Example 1-54 or Example 17-23 at 3.75 μM defined as 100%
Procedure, shortened: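 HepG2 cells transfected with pGL4.37 (pARE-Luc), replated onto compound and incubated 4 h at 37° C; luciferase read by Bright-Glo luminescence. Response normalized to 100% set by a reference compound at 3.75 μM; EC50 from dose-response curve.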

In order of rising EC50:
1. O=C(O)c1cc(F)c(-c2cccc3c2OCN(C(=O)c2c(Cl)cc(N4CC(N5CC(OC(F)F)C5)C4)cc2Cl)C3)cc1N1C2CCC1COC2 [Compound 11-4, 4-[3-[2,6-Dichloro-4-[3-[3-(difluoromethoxy)azetidin-1-yl]azetidin-1-yl]benzoyl]-2,4-dihydro-1,3-benzoxazin-8-yl]-5-fluoro-2-(3-oxa-8-azabicyclo[3.2.1]octan-8-yl)benzoic acid]  2 nM
2. COC1CN(C2(C)CN(c3cc(Cl)c(C(=O)N4COc5c(cccc5-c5cc(N6C7CCC6COC7)c(C(=O)O)cc5F)C4)c(Cl)c3)C2)C1 [Compound 11-5, 4-[3-[2,6-Dichloro-4-[3-(3-methoxyazetidin-1-yl)-3-methylazetidin-1-yl]benzoyl]-2,4-dihydro-1,3-benzoxazin-8-yl]-5-fluoro-2-(3-oxa-8-azabicyclo[3.2.1]octan-8-yl)benzoic acid]  2 nM
3. CC1(N2CCOCC2)CN(c2cc(Cl)c(C(=O)N3COc4c(cccc4-c4cc(N5C6CCC5COC6)c(C(=O)O)cc4F)C3)c(Cl)c2)C1 [Compound 11-6, 4-[3-[2,6-Dichloro-4-(3-methyl-3-morpholin-4-ylazetidin-1-yl)benzoyl]-2,4-dihydro-1,3-benzoxazin-8-yl]-5-fluoro-2-(3-oxa-8-azabicyclo[3.2.1]octan-8-yl)benzoic acid]  2.4 nM
4. Cn1cc(-c2cc(Cl)c(C(=O)N3COc4c(cccc4-c4cc(N5CC6CCC(C5)O6)c(C(=O)O)cc4F)C3)c(Cl)c2)cn1 [Compound 12-2, 4-[3-[2,6-Dichloro-4-(1-methylpyrazol-4-yl)benzoyl]-2,4-dihydro-1,3-benzoxazin-8-yl]-5-fluoro-2-(8-oxa-3-azabicyclo[3.2.1]octan-3-yl)benzoic acid]  2.6 nM
5. O=C(O)c1cc(F)c(-c2cccc3c2OCN(C(=O)c2c(Cl)cc(N4CC(N5CC(F)C5)C4)cc2Cl)C3)cc1N1C2CCC1COC2 [Compound 11-9, 4-[3-[2,6-Dichloro-4-[3-(3-fluoroazetidin-1-yl)azetidin-1-yl]benzoyl]-2,4-dihydro-1,3-benzoxazin-8-yl]-5-fluoro-2-(3-oxa-8-azabicyclo[3.2.1]octan-8-yl)benzoic acid]  2.7 nM
6. O=C(O)c1cc(F)c(-c2cccc3c2OCN(C(=O)c2c(Cl)cc(N4CC(N5CC(F)(F)C5)C4)cc2Cl)C3)cc1N1C2CCC1COC2 [Compound 11-8, 4-[3-[2,6-Dichloro-4-[3-(3,3-difluoroazetidin-1-yl)azetidin-1-yl]benzoyl]-2,4-dihydro-1,3-benzoxazin-8-yl]-5-fluoro-2-(3-oxa-8-azabicyclo[3.2.1]octan-8-yl)benzoic acid]  3.1 nM
7. COC1CN(C2CC3(C2)CN(c2cc(Cl)c(C(=O)N4COc5c(cccc5-c5cc(N6C7CCC6COC7)c(C(=O)O)cc5F)C4)c(Cl)c2)C3)C1 [Compound 11-1, 4-[3-[2,6-Dichloro-4-[6-(3-methoxyazetidin-1-yl)-2-azaspiro [3.3]heptan-2-yl]benzoyl]-2,4-dihydro-1,3-benzoxazin-8-yl]-5-fluoro-2-(3-oxa-8-azabicyclo [3.2.1]octan-8-yl)benzoic acid]  3.6 nM
8. O=C(O)c1cc(F)c(-c2cccc3c2OCN(C(=O)c2c(Cl)cc(N4CC5(CC(OC6CC6)C5)C4)cc2Cl)C3)cc1N1C2CCC1COC2 [Compound 11-10, 4-[3-[2,6-Dichloro-4-(6-cyclopropyloxy-2-azaspiro[3.3]heptan-2-yl)benzoyl]-2,4-dihydro-1,3-benzoxazin-8-yl]-5-fluoro-2-(3-oxa-8-azabicyclo[3.2.1]octan-8-yl)benzoic acid]  3.8 nM
9. COC1(C)CN(C2CN(c3cc(Cl)c(C(=O)N4COc5c(cccc5-c5cc(N6C7CCC6COC7)c(C(=O)O)cc5F)C4)c(Cl)c3)C2)C1 [Compound 11-2, 4-[3-[2,6-Dichloro-4-[3-(3-methoxy-3-methylazetidin-1-yl)azetidin-1-yl]benzoyl]-2,4-dihydro-1,3-benzoxazin-8-yl]-5-fluoro-2-(3-oxa-8-azabicyclo [3.2.1]octan-8-yl)benzoic acid]  4.2 nM
10. O=C(O)c1cc(F)c(-c2cccc3c2OCN(C(=O)c2c(Cl)cc(N4CC(N5CC(OC(F)(F)F)C5)C4)cc2Cl)C3)cc1N1C2CCC1COC2 [Compound 11-7, 4-[3-[2,6-Dichloro-4-[3-[3-(trifluoromethoxy)azetidin-1-yl]azetidin-1-yl]benzoyl]-2,4-dihydro-1,3-benzoxazin-8-yl]-5-fluoro-2-(3-oxa-8-azabicyclo [3.2.1]octan-8-yl)benzoic acid]  5.2 nM
11. Cn1cc(-c2cc(Cl)c(C(=O)N3COc4c(ccc(F)c4-c4ccc(C(=O)O)c(N5CCOCC5)c4)C3)c(Cl)c2)cn1 [Compound 13-9, 4-[3-[2,6-Dichloro-4-(1-methylpyrazol-4-yl)benzoyl]-7-fluoro-2,4-dihydro-1,3-benzoxazin-8-yl]-2-morpholin-4-ylbenzoic acid]  5.2 nM
12. Cc1c(F)c(-c2cccc3c2OCN(C(=O)c2c(Cl)cc(-c4cnn(C)c4)cc2Cl)C3)cc(N2CCOCC2)c1C(=O)O [Compound 13-3, 4-[3-[2,6-Dichloro-4-(1-methylpyrazol-4-yl)benzoyl]-2,4-dihydro-1,3-benzoxazin-8-yl]-3-fluoro-2-methyl-6-morpholin-4-ylbenzoic acid]  5.3 nM
13. Cn1cc(-c2cc(Cl)c(C(=O)N3COc4c(ccc(F)c4-c4cc(N5CCOCC5)c(C(=O)O)cc4F)C3)c(Cl)c2)cn1 [Compound 13-8, 4-[3-[2,6-Dichloro-4-(1-methylpyrazol-4-yl)benzoyl]-7-fluoro-2,4-dihydro-1,3-benzoxazin-8-yl]-5-fluoro-2-morpholin-4-ylbenzoic acid]  5.4 nM
14. CO[C@H]1CN(c2cc(-c3cccc4c3OCN(C(=O)c3c(Cl)cc(-c5cnn(C)c5)cc3Cl)C4)c(F)cc2C(=O)O)[C@H]1C [Compound 12-3, 4-[3-[2,6-Dichloro-4-(1-methylpyrazol-4-yl)benzoyl]-2,4-dihydro-1,3-benzoxazin-8-yl]-5-fluoro-2-[(2S,3S)-3-methoxy-2-methylazetidin-1-yl]benzoic acid]  6 nM
15. COc1cc(Cl)c(C(=O)N2COc3c(cccc3-c3cc(N4CCOCC4)c(C(=O)O)cc3F)C2)cc1F [Compound 13-7, 4-[3-(2-Chloro-5-fluoro-4-methoxybenzoyl)-2,4-dihydro-1,3-benzoxazin-8-yl]-5-fluoro-2-morpholin-4-ylbenzoic acid]  6.7 nM
16. Cn1cc(-c2cc(Cl)c(C(=O)N3COc4c(cccc4-c4cc(N5C6CCC5COC6)c(C(=O)O)cc4F)C3)c(Cl)c2)cn1 [Compound 13-1, 4-[3-[2,6-Dichloro-4-(1-methylpyrazol-4-yl)benzoyl]-2,4-dihydro-1,3-benzoxazin-8-yl]-5-fluoro-2-(3-oxa-8-azabicyclo[3.2.1]octan-8-yl)benzoic acid]  7.1 nM
17. Cn1ncc2c(Cl)c(C(=O)N3COc4c(cccc4-c4ccc(C(=O)O)c(N5CCOCC5)c4)C3)ccc21 [Compound 13-6, 4-[3-(4-Chloro-1-methylindazole-5-carbonyl)-2,4-dihydro-1,3-benzoxazin-8-yl]-2-morpholin-4-ylbenzoic acid]  7.5 nM
18. Cn1ccc2cc(C(=O)N3COc4c(cccc4-c4cc(N5CCOCC5)c(C(=O)O)cc4F)C3)c(Cl)cc21 [Compound 13-11, 4-[3-(6-Chloro-1-methylindole-5-carbonyl)-2,4-dihydro-1,3-benzoxazin-8-yl]-5-fluoro-2-morpholin-4-ylbenzoic acid]  7.5 nM
19. O=C(O)c1cc(F)c(-c2cccc3c2OCN(C(=O)c2c(Cl)cc(N4CC(n5cccn5)C4)cc2Cl)C3)cc1N1C2CCC1COC2 [Compound 11-3, 4-[3-[2,6-Dichloro-4-(3-pyrazol-1-ylazetidin-1-yl)benzoyl]-2,4-dihydro-1,3-benzoxazin-8-yl]-5-fluoro-2-(3-oxa-8-azabicyclo[3.2.1]octan-8-yl)benzoic acid]  9.5 nM
20. CN(Cc1ccon1)c1cc(-c2cccc3c2OCN(C(=O)c2c(Cl)cc(-c4cnn(C)c4)cc2Cl)C3)c(F)cc1C(=O)O [Compound 12-1, 4-[3-[2,6-Dichloro-4-(1-methylpyrazol-4-yl)benzoyl]-2,4-dihydro-1,3-benzoxazin-8-yl]-5-fluoro-2-[methyl(1,2-oxazol-3-ylmethyl)amino] benzoic acid]  11 nM
21. CN(c1cc(-c2cccc3c2OCN(C(=O)c2c(Cl)cc(-c4cnn(C)c4)cc2Cl)C3)c(F)cc1C(=O)O)C1COC1 [Compound 12-4, 4-[3-[2,6-Dichloro-4-(1-methylpyrazol-4-yl)benzoyl]-2,4-dihydro-1,3-benzoxazin-8-yl]-5-fluoro-2-[methyl(oxetan-3-yl)amino]benzoic acid]  15 nM
22. Cn1cc(-c2cc(Cl)c(C(=O)N3COc4c(cccc4-c4ccc(C(=O)O)c(N5CCOCC5)c4F)C3)c(Cl)c2)cn1 [Compound 13-5, 4-[3-[2,6-Dichloro-4-(1-methylpyrazol-4-yl)benzoyl]-2,4-dihydro-1,3-benzoxazin-8-yl]-3-fluoro-2-morpholin-4-ylbenzoic acid]  16 nM
23. Cn1cc(-c2cc(Cl)c(C(=O)N3COc4c(cccc4-c4cc(N5CCOCC5)c(C(=O)O)cc4F)C3)cn2)cn1 [Compound 13-10, 4-[3-[4-Chloro-6-(1-methylpyrazol-4-yl)pyridine-3-carbonyl]-2,4-dihydro-1,3-benzoxazin-8-yl]-5-fluoro-2-morpholin-4-ylbenzoic acid]  17 nM
24. Cn1cc(-c2cc(Cl)c(C(=O)N3Cc4cccc(-c5ccc(C(=O)O)c(N6CCOCC6)c5)c4CN3)c(Cl)c2)cn1 [Compound 13-2, 4-[2-[2,6-Dichloro-4-(1-methylpyrazol-4-yl)benzoyl]-3,4-dihydro-1H-phthalazin-5-yl]-2-morpholin-4-ylbenzoic acid]  18 nM
25. Cn1cc(-c2cc(Cl)c(C(=O)N3COc4c(cccc4-c4c(F)cc(C(=O)O)c(N5CCOCC5)c4F)C3)c(Cl)c2)cn1 [Compound 13-4, 4-[3-[2,6-Dichloro-4-(1-methylpyrazol-4-yl)benzoyl]-2,4-dihydro-1,3-benzoxazin-8-yl]-3,5-difluoro-2-morpholin-4-ylbenzoic acid]  24 nM
